The values that follow come from patent US20160030443A1, “METHODS AND COMPOSITIONS FOR MODULATING REGULATORY T CELL FUNCTION” (priority 2013, published 2016).

The subject of this test is human Treg cells. The test is described as follows: Functional screening assay: naïve CD4+ T cell proliferation ([3H]thymidine) with Treg cells and small molecule compounds. In kind it is cell-based. As to conditions: compound 1 μM; [3H]thymidine incorporation; marked effect = CPM>60K, 50% restoration. The protocol:
These small molecule compounds contain a quinolone structure. Those with a marked effect on the proliferation of CD4^+ naïve T cells (CPM>60K, 50% restoration compared to naïve T cells alone) are considered excellent candidates for further drug development. Naïve T cells alone or CD4^+ naïve cells plus Treg cells, without any compound serve as controls. […]
Specifically, a functional screening assay was carried out using soluable anti-CD3 antibody plus antigen-presenting cells (APCs). Naïve CD4^+T cells were purified from PBMCs using microbeads (Miltenvi Biotec). DCs were generated from PBMC-derived monocytes in the presence of IL-4 (500 ng/ml) and GM-CSF (800 ng/ml) for 7 days. 1×10^5 naïve CD4^+ T cells were cultured with regulatory T cells at different ratios of 1:0.2, 1:0.1 and 1:0.05 in 200 μl of medium containing 2×10^4 of DCs and anti-CD3 antibody (100 ng/ml) in the absence or presence of various small molecule compounds (1 μM). □ After 56 hours of culture, [^3H]thymidine was added at a final concentration of 1 μCi/well, followed by an additional 16 h. of culture. The incorporation of [^3H]thymidine was measured with a liquid scintillation counter. All experiments were performed in triplicate. In addition, a screening assay was performed usinge anti-CD3 antibody coated without APCs: 1×10^5 naïve CD4 T cells were cultured with regulatory T cells at different ratios of 1:0.2, 1:0.1 and 1:0.05 in anti-CD3 mAb-coated (2 μg/ml) 96-well plates in the absence or presence of various small molecule compounds (1 μM) □. After 56 h of culture, [^3H]thymidine was added at a final concentration of 1 μCi/well, followed by an additional 16 h of culture. The incorporation of [^3H]thymidine was measured with a liquid scintillation counter.
(In general: Uptake of a labelled nucleoside into DNA is a usual measure of proliferation.)

SMILES strings stand for the structures.

Regarding `CCCCCn1cc(C(=O)O)c(=O)c2cc(F)c(F)cc21` [#8, 6,7-difluoro-4-oxo-1-pentylquinoline-3-carboxylic acid], the “Reversal of the suppressive function of Treg cells (restoration of naïve CD4+ T cell proliferation)” value (from here on “Reversal”) is listed as “ST008097 #8 No activity”.

Consider `CCn1cc(C(=O)O)c(=O)c2cc(F)c(NN3C(=O)/C(=C\c4ccccc4)N=C3c3ccccc3)cc21` [#9, F[…] 5- MALEIMIDE], for which the “Reversal” value is “ST023837 #9 No activity”.

In the case of `O=C(O)c1c[nH]c2ccccc2c1=O` [#10, 4-oxo-1H-quinoline-3-carboxylic acid], the “Reversal” value is “ST020639 #10 No activity”.

Turning to `CCn1cc(C(=O)O)c(=O)c2cc(F)c(NN3C(=O)CSC3c3ccccc3Cl)cc21` (stereo not shown) [#11, {[2-(2-chlorophenyl)-4-oxo(1,3-thiazolidin-3-yl)]amino}-1-ethyl-6-fluoro-4-o xohydroquinoline-3-carboxylic acid], the “Reversal” value is given as “ST048777 #11 No activity”.

Regarding `CCn1cc(C(=O)O)c(=O)c2cc(F)c(NN3C(=O)C(Cl)C3c3ccc(OC)cc3)cc21` (stereo not shown) [#12, 7-{[3-Chloro-2-(4-methoxyphenyl)-4-oxo-1-azetidinyl]amino}-1-ethyl-6-fluoro-4-oxo-1,4-dihydro-3-quinolinecarboxylic acid], the “Reversal” value is reported as “ST026709 #12 No activity”.

For the molecule `CCOC(=O)c1cn(-c2ccc(F)cc2F)c2nc(Cl)c(F)cc2c1=O` [#14, ethyl 7-chloro-1-(2,4-difluorophenyl)-6-fluoro-4-oxo-1,8-naphthyridine-3-carboxylate], the “Reversal” value was “ST067113 #14 No activity”.

For the molecule `Fc1ccccc1N1CCNCC1` [#15, 1-(2-Fluorophenyl)piperazine], the “Reversal” value is “TRE0004030 #15 No activity”.

Turning to `Fc1ccc(N2CCNCC2)c(F)c1` [#16, 1-(2,4-Difluorophenyl)piperazine], the “Reversal” value is given as “TRE0005495 #16 No activity”.

For `Fc1ccccc1N1CCNCC1` [#17, 1-(2-Fluorophenyl)piperazine], the “Reversal” value is reported as “TRE0005772 #17 No activity”.

Turning to `CCOC(=O)c1c[nH]c2c(F)c(F)c(F)cc2c1=O` [#18, Ethyl 6,7,8-trifluoro-1,4-dihydro-4-oxo-3-quinilinecarboxylate], the “Reversal” value is recorded as “TRE0006666 #18 No activity”.

As for `CCn1cc(C(=O)O)c(=O)c2cc(F)c(Cl)cc21` [#19, 7-Chloro-1-ethyl-6-fluoro-4-oxo-1,4-dihydro-3-quinolinecarboxylic acid], the “Reversal” value is given as “TRE0007211 #19 No activity”.

Take `CC1COc2c(F)c(F)cc3c(=O)c(C(=O)O)cn1c23` (stereo not shown) [#20, 9,10-Difluoro-3-methyl-7-oxo-2,3-dihydro-7H-[1,4]oxazino[2,3,4-ij]quinoline-6-carboxylic acid]: the “Reversal” value is reported as “TRE0008195 #20 No activity”.

Regarding `CC1CCc2cc(F)cc3c(=O)c(C(=O)O)cn1c23` (stereo not shown) [#21, 9-Fluoro-5-methyl-1-oxo-6,7-dihydro-1H,5H-pyrido[3,2,1-ij]quinoline-2-carboxylic acid, reference compound], the “Reversal” value was “TRE0065224 #21 No activity”.

In the case of `CCN1CCN(c2cc3c(cc2F)c(=O)c(C(=O)O)cn3C2CC2)CC1` [#26, 1-Cyclopropyl-7-(4-ethyl-1-piperazinyl)-6-fluoro-4-oxo-1,4-dihydro-3-quinolinecarboxylic acid, reference compound], the “Reversal” value is on record as “TRE0076990 #26 No activity”.

On to `CCOC(=O)c1cn(CC)c2c(F)c(F)c(F)cc2c1=O` [#27, Ethyl 1-ethyl-6,7,8-trifluoro-1,4-dihydro-4-oxo-3-quinolinecarboxylate], for which the “Reversal” value was “TRE0080754 #27 No activity”.

As for `O=C(O)c1coc2ccc(F)cc2c1=O` [#28, 6-Fluoro-4-oxo-4H-chromene-3-carboxylic acid], the “Reversal” value was “TRE0080974 #28 No activity”.
